# Results published in PubChem BioAssay AID1745844 (Carcinogenic Potency Database (CPDB), 2022).
# Activity calls are given as the source filed them. The rule behind the calls is not given here.
# Test system: rodent lifetime carcinogenesis bioassay, tumor incidence TD50
# Assay: carcinogenic potency in animals, long-term in vivo studies, CPDB compilation (AID 1745844)
smiles,measurement,setting,value
C1CO1,TD50,"mouse, strain B6C3F1, females, inhaled, site: Harderian gland + lung, lesion: papillary cystadenoma, NOS + alveolar/bronchiolar adenoma + alveolar/bronchiolar carcinoma, dosed 102 weeks, study length 104 weeks",45.8 mg/kg/day
same,TD50,"mouse, strain B6C3F1, females, inhaled, site: Harderian gland, lesion: papillary cystadenoma, NOS, dosed 102 weeks, study length 104 weeks",142 mg/kg/day
same,TD50,"mouse, strain B6C3F1, females, inhaled, site: any site (literature study), lesion: several types, types named in the paper, dosed 102 weeks, study length 104 weeks",103 mg/kg/day
same,TD50,"mouse, strain B6C3F1, females, inhaled, site: duodenum + Harderian gland + kidney + lung + mediastinum + mammary gland + mesenteric lymph node + multiple organs + spleen + uterus, lesion: malignant lymphoma, NOS + papillary cystadenoma, NOS + alveolar/bronchiolar adenoma + alveolar/bronchiolar carcinoma + adenocarc, dosed 102 weeks, study length 104 weeks",39.2 mg/kg/day
same,TD50,"mouse, strain B6C3F1, females, inhaled, site: duodenum + kidney + mediastinum + mammary gland + mesenteric lymph node + multiple organs + spleen + uterus, lesion: malignant lymphoma, NOS + adenocarcinoma, NOS + adenosquamous carcinoma + malignant lymphoma, histiocytic type + adenoma, NOS, dosed 102 weeks, study length 104 weeks",79.2 mg/kg/day
same,TD50,"mouse, strain B6C3F1, females, inhaled, site: duodenum + kidney + mediastinum + mesenteric lymph node + multiple organs + spleen + uterus, lesion: malignant lymphoma, NOS + malignant lymphoma, histiocytic type, dosed 102 weeks, study length 104 weeks",139 mg/kg/day
same,TD50,"mouse, strain B6C3F1, females, inhaled, site: liver, lesion: hepatocellular adenoma + hepatocellular carcinoma + neoplastic nodule, dosed 102 weeks, study length 104 weeks",149 mg/kg/day
same,TD50,"mouse, strain B6C3F1, females, inhaled, site: liver, lesion: hepatocellular adenoma, dosed 102 weeks, study length 104 weeks",75.8 mg/kg/day
same,TD50,"mouse, strain B6C3F1, females, inhaled, site: lung, lesion: alveolar/bronchiolar adenoma + alveolar/bronchiolar carcinoma, dosed 102 weeks, study length 104 weeks",61.8 mg/kg/day
same,TD50,"mouse, strain B6C3F1, females, inhaled, site: lung, lesion: alveolar/bronchiolar adenoma, dosed 102 weeks, study length 104 weeks",87.5 mg/kg/day
same,TD50,"mouse, strain B6C3F1, females, inhaled, site: lung, lesion: alveolar/bronchiolar carcinoma, dosed 102 weeks, study length 104 weeks",200 mg/kg/day
same,TD50,"mouse, strain B6C3F1, females, inhaled, site: mammary gland, lesion: adenocarcinoma, NOS + adenosquamous carcinoma, dosed 102 weeks, study length 104 weeks",76.3 mg/kg/day
same,TD50,"mouse, strain B6C3F1, females, inhaled, site: uterus, lesion: adenocarcinoma, NOS + adenoma, NOS, dosed 102 weeks, study length 104 weeks",250 mg/kg/day
same,TD50,"mouse, strain B6C3F1, females, inhaled, site: uterus, lesion: adenocarcinoma, NOS, dosed 102 weeks, study length 104 weeks",297 mg/kg/day
same,TD50,"mouse, strain B6C3F1, males, inhaled, site: Harderian gland + lung, lesion: papillary cystadenoma, NOS + alveolar/bronchiolar adenoma + alveolar/bronchiolar carcinoma, dosed 102 weeks, study length 104 weeks",51.2 mg/kg/day
same,TD50,"mouse, strain B6C3F1, males, inhaled, site: Harderian gland, lesion: papillary cystadenoma, NOS, dosed 102 weeks, study length 104 weeks",110 mg/kg/day
same,TD50,"mouse, strain B6C3F1, males, inhaled, site: any site (literature study), lesion: several types, types named in the paper, dosed 102 weeks, study length 104 weeks",108 mg/kg/day
same,TD50,"mouse, strain B6C3F1, males, inhaled, site: liver, lesion: hepatocellular adenoma + hepatocellular carcinoma + neoplastic nodule, dosed 102 weeks, study length 104 weeks",273 mg/kg/day
same,TD50,"mouse, strain B6C3F1, males, inhaled, site: lung, lesion: alveolar/bronchiolar adenoma + alveolar/bronchiolar carcinoma, dosed 102 weeks, study length 104 weeks",65.7 mg/kg/day
same,TD50,"mouse, strain B6C3F1, males, inhaled, site: lung, lesion: alveolar/bronchiolar adenoma, dosed 102 weeks, study length 104 weeks",181 mg/kg/day
same,TD50,"mouse, strain B6C3F1, males, inhaled, site: lung, lesion: alveolar/bronchiolar carcinoma, dosed 102 weeks, study length 104 weeks",110 mg/kg/day
same,TD50,"rat, strain Fischer 344/Mai fBR, females, inhaled, site: brain, lesion: several types, types named in the paper, dosed 76 weeks, study length 78 weeks",237 mg/kg/day
same,TD50,"rat, strain Fischer 344/Mai fBR, females, inhaled, site: brain, lesion: several types, types named in the paper, dosed 101 weeks, study length 104 weeks",143 mg/kg/day
same,TD50,"rat, strain Fischer 344/Mai fBR, females, inhaled, site: pituitary gland, lesion: adenoma, dosed 76 weeks, study length 78 weeks",29.8 mg/kg/day (inactive)
same,TD50,"rat, strain Fischer 344/Mai fBR, males, inhaled, site: adrenal gland, lesion: pheochromocytoma, dosed 76 weeks, study length 78 weeks",26.1 mg/kg/day (inactive)
same,TD50,"rat, strain Fischer 344/Mai fBR, males, inhaled, site: brain, lesion: astrocytoma, dosed 76 weeks, study length 78 weeks",102 mg/kg/day
same,TD50,"rat, strain Fischer 344/Mai fBR, males, inhaled, site: brain, lesion: several types, types named in the paper, dosed 105 weeks, study length 108 weeks",70.7 mg/kg/day
same,carcinogen call,"rat, strain Fischer 344/Mai fBR, males, inhaled, site: pituitary gland, lesion: adenoma, dosed 76 weeks, study length 78 weeks",negative (inactive)
same,carcinogen call,"rat, strain Fischer 344/Mai fBR, males, inhaled, site: testis, lesion: interstitial-cell tumor, dosed 76 weeks, study length 78 weeks",negative (inactive)
same,TD50,"rat, strain Fischer 344, males, inhaled, site: brain, lesion: glioma, dosed 101 weeks, study length 104 weeks",121 mg/kg/day
same,TD50,"rat, strain Fischer 344, males, inhaled, site: peritoneum, lesion: mesothelioma, dosed 101 weeks, study length 104 weeks",30.8 mg/kg/day
same,TD50,"rat, strain Fischer 344, males, inhaled, site: spleen, lesion: mononuclear-cell leukemia, dosed 101 weeks, study length 104 weeks",47.3 mg/kg/day
same,TD50,"rat, strain Sprague-Dawley, females, by gavage, site: forestomach, lesion: squamous-cell carcinoma, dosed 107 weeks, study length 150 weeks",10.6 mg/kg/day
same,TD50,"rat, strain Sprague-Dawley, females, by gavage, site: mammary gland, lesion: adenofibroma, dosed 107 weeks, study length 150 weeks",10 mg/kg/day (inactive)
same,TD50,"rat, strain Sprague-Dawley, females, by gavage, site: stomach, lesion: several types, types named in the paper, dosed 107 weeks, study length 150 weeks",7.43 mg/kg/day
NC(N)=Nc1nc(CSCCNc2nsnc2N)cs1,TD50,"rat, strain Charles River CD (Sprague-Dawley), females, by gavage, site: gastric mucosa, lesion: carcinoid tumor, malignant, dosed 105 weeks, study length 105 weeks",6270 mg/kg/day
same,TD50,"rat, strain Charles River CD (Sprague-Dawley), males, by gavage, site: gastric mucosa, lesion: carcinoid tumor, malignant, dosed 105 weeks, study length 105 weeks",4140 mg/kg/day
CN(N=O)c1ccc(F)cc1,TD50,"rat, strain Fischer 344, males, in drinking water, site: esophagus, lesion: several types, types named in the paper, dosed 50 weeks, study length 114 weeks",0.255 mg/kg/day
same,TD50,"rat, strain Fischer 344, males, in drinking water, site: liver, lesion: hyperplastic nodule, dosed 50 weeks, study length 114 weeks",10.3 mg/kg/day
COc1cc2c(c3c1c(=O)c1ccccc1n3C)C=CC(C)(C)O2,TD50,"mouse, strain B6C3F1, females, i.p., site: liver, lesion: hepatocellular adenoma + hepatocellular carcinoma + neoplastic nodule, dosed 48 weeks, study length 78 weeks",2.46 mg/kg/day
same,TD50,"mouse, strain B6C3F1, females, i.p., site: lung, lesion: alveolar/bronchiolar adenoma + alveolar/bronchiolar carcinoma, dosed 48 weeks, study length 78 weeks",2.46 mg/kg/day
same,TD50,"rat, strain Sprague-Dawley, females, i.p., site: any site (literature study), lesion: several types, types named in the paper, dosed 52 weeks, study length 80 weeks",0.568 mg/kg/day
same,TD50,"rat, strain Sprague-Dawley, females, i.p., site: liver, lesion: hepatocellular adenoma + hepatocellular carcinoma + neoplastic nodule, dosed 52 weeks, study length 80 weeks",8.75 mg/kg/day
same,TD50,"rat, strain Sprague-Dawley, females, i.p., site: mammary gland + peritoneum, lesion: adenocarcinoma, NOS + cystadenocarcinoma, NOS + cystadenoma, NOS + fibroadenoma + papillary adenocarcinoma + fibrosarcoma + mesothel, dosed 52 weeks, study length 80 weeks",0.873 mg/kg/day
same,TD50,"rat, strain Sprague-Dawley, females, i.p., site: mammary gland, lesion: adenocarcinoma, NOS + cystadenocarcinoma, NOS + cystadenoma, NOS + fibroadenoma + papillary adenocarcinoma, dosed 52 weeks, study length 80 weeks",0.395 mg/kg/day
same,TD50,"rat, strain Sprague-Dawley, females, i.p., site: mammary gland, lesion: fibroadenoma, dosed 52 weeks, study length 80 weeks",0.455 mg/kg/day
same,TD50,"rat, strain Sprague-Dawley, females, i.p., site: peritoneum, lesion: fibrosarcoma + mesothelioma, malignant + sarcoma, NOS, dosed 52 weeks, study length 80 weeks",5.86 mg/kg/day
same,TD50,"rat, strain Sprague-Dawley, females, i.p., site: peritoneum, lesion: sarcoma, NOS, dosed 52 weeks, study length 80 weeks",11.4 mg/kg/day
same,TD50,"rat, strain Sprague-Dawley, males, i.p., site: adrenal gland, lesion: cortical adenoma, dosed 51 weeks, study length 80 weeks",1.85 mg/kg/day
same,TD50,"rat, strain Sprague-Dawley, males, i.p., site: all sites + bone + peritoneum + vertebra, lesion: osteosarcoma + fibrosarcoma + mesothelioma, NOS + mesothelioma, malignant + sarcoma, NOS, dosed 51 weeks, study length 80 weeks",0.497 mg/kg/day
same,TD50,"rat, strain Sprague-Dawley, males, i.p., site: all sites, lesion: osteosarcoma, dosed 51 weeks, study length 80 weeks",0.698 mg/kg/day
same,TD50,"rat, strain Sprague-Dawley, males, i.p., site: any site (literature study), lesion: several types, types named in the paper, dosed 51 weeks, study length 80 weeks",0.227 mg/kg/day
same,TD50,"rat, strain Sprague-Dawley, males, i.p., site: bone + vertebra, lesion: osteosarcoma, dosed 51 weeks, study length 80 weeks",1.03 mg/kg/day
same,TD50,"rat, strain Sprague-Dawley, males, i.p., site: liver, lesion: hepatocellular adenoma + hepatocellular carcinoma + neoplastic nodule, dosed 51 weeks, study length 80 weeks",2.11 mg/kg/day
same,TD50,"rat, strain Sprague-Dawley, males, i.p., site: peritoneum, lesion: fibrosarcoma + mesothelioma, NOS + mesothelioma, malignant + sarcoma, NOS, dosed 51 weeks, study length 80 weeks",1.49 mg/kg/day
CCCCCN(N=O)C(N)=O,TD50,"rat, strain Donryu, females, in drinking water, site: all sites, lesion: myelocytic leukemia, dosed 65 weeks, study length 65 weeks",19.9 mg/kg/day
same,TD50,"rat, strain Donryu, females, in drinking water, site: any site (literature study), lesion: several types, types named in the paper, dosed 65 weeks, study length 65 weeks",1.93 mg/kg/day
same,TD50,"rat, strain Donryu, females, in drinking water, site: digestive tract, lesion: several types, types named in the paper, dosed 65 weeks, study length 65 weeks",1.15 mg/kg/day
same,TD50,"rat, strain Donryu, females, in drinking water, site: esophagus, lesion: one or several types, types not named, dosed 65 weeks, study length 65 weeks",0.967 mg/kg/day
same,TD50,"rat, strain Donryu, females, in drinking water, site: forestomach, lesion: one or several types, types not named, dosed 65 weeks, study length 65 weeks",1.35 mg/kg/day
same,TD50,"rat, strain Donryu, females, in drinking water, site: liver, lesion: hepatocellular adenoma, dosed 65 weeks, study length 65 weeks",13.3 mg/kg/day
same,TD50,"rat, strain Donryu, females, in drinking water, site: mammary gland, lesion: several types, types named in the paper, dosed 65 weeks, study length 65 weeks",11.9 mg/kg/day
same,TD50,"rat, strain Donryu, males, in drinking water, site: all sites, lesion: myelocytic leukemia, dosed 65 weeks, study length 65 weeks",9.17 mg/kg/day
same,TD50,"rat, strain Donryu, males, in drinking water, site: any site (literature study), lesion: several types, types named in the paper, dosed 65 weeks, study length 65 weeks",0.541 mg/kg/day
same,TD50,"rat, strain Donryu, males, in drinking water, site: digestive tract, lesion: several types, types named in the paper, dosed 65 weeks, study length 65 weeks",0.532 mg/kg/day
same,TD50,"rat, strain Donryu, males, in drinking water, site: esophagus, lesion: one or several types, types not named, dosed 65 weeks, study length 65 weeks",1.44 mg/kg/day
same,TD50,"rat, strain Donryu, males, in drinking water, site: forestomach, lesion: one or several types, types not named, dosed 65 weeks, study length 65 weeks",0.532 mg/kg/day
same,TD50,"rat, strain Fischer 344, females, by gavage, site: forestomach, lesion: one or several types, types not named, dosed 50 weeks, study length 104 weeks",0.478 mg/kg/day
same,TD50,"rat, strain Fischer 344, females, by gavage, site: liver, lesion: one or several types, types not named, dosed 50 weeks, study length 104 weeks",4.7 mg/kg/day
same,TD50,"rat, strain Fischer 344, females, by gavage, site: lung, lesion: several types, types named in the paper, dosed 50 weeks, study length 104 weeks",1.09 mg/kg/day
same,TD50,"rat, strain Fischer 344, females, by gavage, site: mammary gland, lesion: adenocarcinoma, dosed 50 weeks, study length 104 weeks",2.98 mg/kg/day
same,TD50,"rat, strain Fischer 344, females, by gavage, site: uterus, lesion: several types, types named in the paper, dosed 50 weeks, study length 104 weeks",0.934 mg/kg/day
same,TD50,"rat, strain Fischer 344, males, by gavage, site: all sites, lesion: mesothelioma, dosed 50 weeks, study length 104 weeks",0.865 mg/kg/day
same,carcinogen call,"rat, strain Fischer 344, males, by gavage, site: forestomach, lesion: one or several types, types not named, dosed 50 weeks, study length 104 weeks",positive
same,TD50,"rat, strain Fischer 344, males, by gavage, site: lung, lesion: several types, types named in the paper, dosed 50 weeks, study length 104 weeks",0.546 mg/kg/day
